Data on 8 compounds can be found in ChEMBL document CHEMBL1132029, “Specific, uncompetitive inhibition of beta-galactosidases by a 5,6-isopropylidenedioxyfuro[2,3-d]isoxazole-3-methanol derivative” (Bioorg Med Chem Lett, 1999).

A short description of assay [1]: Inhibitory activity against beta-galactosidase from jack beans at a concentration of 1 mM; No activity. Conditions: Canavalia ensiformis.
Assay [2] can be described thus: Inhibitory activity against beta-galactosidase from Aspergillus oryzae at a concentration of 1 mM; No activity.
The target of assay [3] is Beta-glucosidase A (Caldicellulosiruptor saccharolyticus) (UniProt P10482). The experiment in a line: Inhibitory activity against beta-glucosidase from Caldocellum saccharolyticum at a concentration of 1 mM; No activity.
Target sequence in this assay (P10482 whole entry): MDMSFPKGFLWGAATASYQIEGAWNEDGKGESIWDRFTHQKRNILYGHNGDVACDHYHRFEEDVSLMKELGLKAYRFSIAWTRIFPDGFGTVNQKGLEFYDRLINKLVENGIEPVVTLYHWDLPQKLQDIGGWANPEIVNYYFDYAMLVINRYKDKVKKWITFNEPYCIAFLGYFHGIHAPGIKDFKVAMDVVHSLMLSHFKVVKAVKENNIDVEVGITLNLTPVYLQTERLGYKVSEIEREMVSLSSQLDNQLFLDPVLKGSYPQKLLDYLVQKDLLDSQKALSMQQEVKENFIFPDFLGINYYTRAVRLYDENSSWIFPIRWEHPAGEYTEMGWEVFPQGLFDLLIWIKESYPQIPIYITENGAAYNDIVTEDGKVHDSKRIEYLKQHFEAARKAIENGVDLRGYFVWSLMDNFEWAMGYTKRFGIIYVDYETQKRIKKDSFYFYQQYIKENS
Assay [4] deals with T1, Beta-galactosidase (Aspergillus niger) (UniProt P29853).
T1 sequence (whole entry): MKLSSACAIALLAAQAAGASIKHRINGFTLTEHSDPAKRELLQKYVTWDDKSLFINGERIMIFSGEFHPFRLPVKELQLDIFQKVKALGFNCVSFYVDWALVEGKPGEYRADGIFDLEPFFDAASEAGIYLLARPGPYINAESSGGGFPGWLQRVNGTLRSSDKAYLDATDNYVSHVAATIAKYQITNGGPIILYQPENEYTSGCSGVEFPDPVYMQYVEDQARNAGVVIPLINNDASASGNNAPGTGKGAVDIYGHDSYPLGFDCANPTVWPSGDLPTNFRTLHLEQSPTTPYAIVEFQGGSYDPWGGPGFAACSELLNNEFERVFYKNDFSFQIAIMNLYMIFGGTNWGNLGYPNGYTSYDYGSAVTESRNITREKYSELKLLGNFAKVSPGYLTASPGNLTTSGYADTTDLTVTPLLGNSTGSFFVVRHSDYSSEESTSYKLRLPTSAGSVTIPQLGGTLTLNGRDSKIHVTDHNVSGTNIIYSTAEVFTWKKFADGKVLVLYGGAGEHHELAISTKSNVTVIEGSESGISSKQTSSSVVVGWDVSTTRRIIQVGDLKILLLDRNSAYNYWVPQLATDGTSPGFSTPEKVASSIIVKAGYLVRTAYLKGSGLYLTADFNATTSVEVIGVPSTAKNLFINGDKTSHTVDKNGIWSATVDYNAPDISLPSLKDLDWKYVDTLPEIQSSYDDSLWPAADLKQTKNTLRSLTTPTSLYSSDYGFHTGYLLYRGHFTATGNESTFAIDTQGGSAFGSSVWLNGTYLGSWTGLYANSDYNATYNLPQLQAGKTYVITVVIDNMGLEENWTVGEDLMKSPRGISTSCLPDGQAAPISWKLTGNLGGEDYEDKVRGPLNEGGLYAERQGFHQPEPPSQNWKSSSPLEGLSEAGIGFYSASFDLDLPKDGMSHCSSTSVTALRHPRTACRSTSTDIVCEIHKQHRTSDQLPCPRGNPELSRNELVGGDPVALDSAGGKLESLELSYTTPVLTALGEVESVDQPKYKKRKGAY
Description: Inhibitory activity against beta-galactosidase from Aspergillus niger at a concentration of 1 mM; No activity.

Assay [5] has as its target Beta-glucosidase A (Caldicellulosiruptor saccharolyticus) (UniProt P10482). The experiment in a line: Inhibitory activity against beta-glucosidase from Caldocellum saccharolyticum at a concentration of 1 mM; No activity.
Target sequence in this assay (P10482 whole entry, looked up): as the sequence (P10482 whole entry) above
Assay [6] in a line: Inhibitory activity against beta-galactosidase from jack beans […]; No activity. Conditions: Canavalia ensiformis.
Assay [7] is described as follows: Inhibitory activity against rice Alpha-galactosidase at concentration 1 mM.
Assay [8] deals with Beta-glucosidase A (Caldicellulosiruptor saccharolyticus, UniProt P10482). Description: Inhibition of beta-glucosidase from Caldocellum saccharolyticum.
Assay [9] addresses T1, Beta-galactosidase (Aspergillus niger). The following applies: 1 mM.
The target in assay [10] is Beta-glucosidase A (Caldicellulosiruptor saccharolyticus) (UniProt P10482). Conditions: 1 mM.
Target sequence in this assay (P10482 whole entry): as the sequence (P10482 whole entry) above
Assay [11] has as its target T2, Beta-galactosidase (Aspergillus niger, UniProt P29853).
T2 sequence (P29853 whole entry): T1 sequence (whole entry)
The experiment in a line: Inhibition of beta-galactosidase from Aspergillus niger.

The source made the active and inactive calls. The calls are words filed in the database; no cut-off is given here.

As usually defined, the inhibition is the percentage by which the read-out fell short of the control. The low end stands for little suppression, the high end for strong suppression. The IC50 is the concentration that gives 50% inhibition. Higher therefore signals a need for much substance. The Ki is the dissociation constant of the complex between target and ligand, obtained from inhibition or displacement.

Chain of Beta-glucosidase A (P10482 whole entry): as the sequence (P10482 whole entry) above

For the compound `COCC1=NO[C@H]2[C@@H]3OC(C)(C)O[C@@H]3O[C@@H]12`, the result in assay [1], in assay [2], in [3] and in [4] was inactive.
`CC1(C)O[C@H]2O[C@@H]3C(C4N[C@@H](c5ccccc5)[C@H](c5ccccc5)N4)=NO[C@@H]3[C@H]2O1`: the result in assay [5], in assay [1], in assay [2] and in assay [4] was inactive.
For the compound `CCOC(OCC)C1=NO[C@H]2[C@H](O)C(O)O[C@@H]12` (stereo not given in full), the outcome in assay [5], in assay [1], in assay [2] and in assay [4] was inactive.
For the compound `CC1(C)O[C@@H]2O[C@H]3C(C4N[C@@H](c5ccccc5)[C@H](c5ccccc5)N4)=NO[C@H]3[C@@H]2O1`, the result in assay [5], in [2], in assay [6] and in [4] was inactive.
With `OCC1=NO[C@H]2[C@H](O)C(O)O[C@@H]12` (stereo not given in full), the result in [1], in [2], in assay [3] and in assay [4] was inactive. Besides, in assay [7], the inhibition worked out at 59%.
As to `CC1(C)O[C@@H]2O[C@H]3C(C=O)=NO[C@H]3[C@@H]2O1`, the outcome in assay [5], in assay [1], in assay [2] and in assay [4] was inactive.
Consider `COCOCC1=NO[C@H]2[C@@H]3OC(C)(C)O[C@@H]3O[C@@H]12`, for which the outcome in assay [1], in [2], in [3] and in [4] was inactive.
In the case of `CC1(C)O[C@@H]2O[C@H]3C(CO)=NO[C@H]3[C@@H]2O1`, the values for the 50% inhibitory concentration (IC50) in [8] and in [11] were 550 µM and 43 µM, respectively. The Ki in assay [8] stood at 5 µM; in [11], 18 µM. Moreover, the values for the inhibition in assay [9] and in [10] were 14% and 67%, respectively.
